Drawing on ChEMBL document CHEMBL1147421, “Diamine derivatives with antiparasitic activities” (Bioorg Med Chem Lett, 2004), this text covers EC50 for 48 compounds.

As a reminder, the EC50 is the concentration at which the effect is half-maximal.

Several values for one entry are separate records, joined by “and”; a condition that tells them apart may be missing. Identical values can stand only once.

Experiment [1] in a line: Antiparasitic activity against Leishmania promastigotes (Leishmania donovani). It is filed as functional.
For experiment [2], the system named is Plasmodium falciparum. Briefly: Antiparasitic activity against chloroquine-resistant Plasmodium falciparum W2. The class given is functional, organism-based.
Experiment [3] concerns Plasmodium falciparum. Briefly: Antiparasitic activity against Plasmodium falciparum D6. It is filed as functional, organism-based.

As to `COc1cc(CN(CCCN)Cc2cc(OC)cc(OC)c2)cc(OC)c1.O=C(O)C(F)(F)F`, the figures for the EC50 in experiment [1], in experiment [2] and in experiment [3] were 9.42 µM, “Not Active” and “Not Active”, respectively.

Consider `COc1ccc(OC)c(CN(CCCCN)Cc2cc(OC)ccc2OC)c1.O=C(O)C(F)(F)F`, for which the EC50 in experiment [1] was 5.37 µM; in experiment [2], “Not Active”; in experiment [3], “Not Active”.

Consider `NCCCCN(Cc1ccccc1)Cc1ccc(OCc2ccccc2)cc1`, for which the EC50 in experiment [1] amounted to 0.37 µM; in experiment [2] (Plasmodium falciparum) it was 7.78 µM; in experiment [3] (Plasmodium falciparum), 5.73 µM.

As to `COc1cccc(CN(CCCCN)Cc2cccc(OC)c2)c1.O=C(O)C(F)(F)F`, the EC50 in experiment [1] is 10.8 µM; in experiment [2] (Plasmodium falciparum), 6.1 µM; in experiment [3], “Not Active”.

Consider `NCCCCN(Cc1ccccc1)Cc1ccc(Cl)cc1.O=C(O)C(F)(F)F`, for which the EC50 in experiment [1] was 1.61 µM; in experiment [2] it was “Not Active”; in experiment [3] it was “Not Active”.

As to `Cc1ccc(COc2ccc(CN(CCCN)Cc3ccc(OCc4ccc(C)cc4)cc3)cc2)cc1`, the concentration giving a half-maximal response (EC50) in experiment [1] is 1.2 µM and 1.07 µM; in experiment [2] it was 4.6 µM; in experiment [2] (Plasmodium falciparum), 3.59 µM; in experiment [3], 1.41 µM; in experiment [3] (Plasmodium falciparum), 1.42 µM.

For the compound `NCCCN(Cc1ccccc1)Cc1ccc(Cl)cc1.O=C(O)C(F)(F)F`, the EC50 in experiment [1] was 1.86 µM; in experiment [2] (Plasmodium falciparum), 7.7 µM; in experiment [3], “Not Active”.

For `COc1ccc(CN(CCCN)Cc2ccccc2)cc1.O=C(O)C(F)(F)F`, the figures for the EC50 in experiment [1], in experiment [2] and in experiment [3] were 4.52 µM, “Not Active” and “Not Active”, respectively.

For the compound `COc1cccc(CN(CCCN)Cc2cccc(OC)c2)c1.O=C(O)C(F)(F)F`, the EC50 in experiment [1] is 12.6 µM; in experiment [2] it was “Not Active”; in experiment [3] it was “Not Active”.

On to `CC(C)c1ccc(CN(CCCCN)Cc2ccccc2)cc1`, for which the EC50 in experiment [1] was found to be 1.88 µM; in experiment [2] (Plasmodium falciparum) it was 10.1 µM; in experiment [3] (Plasmodium falciparum), 9.66 µM.

As for `CC(C)(C)c1ccc(COc2ccc(CN(CCCCN)Cc3ccc(OCc4ccc(C(C)(C)C)cc4)cc3)cc2)cc1`, the concentration for a half-maximal effect (EC50) in experiment [1] is 8.92 µM and 3 µM; in experiment [2], 6.42 µM and 2.09 µM; in experiment [3] (Plasmodium falciparum), 1.07 µM.

`COc1ccc(CN(CCCCN)Cc2ccccc2)cc1.O=C(O)C(F)(F)F`: the concentration for a half-maximal effect (EC50) is 1.45 µM in experiment [1], 2.23 µM in experiment [2] (Plasmodium falciparum) and “Not Active” in experiment [3].

In the case of `CC1=C2[C@H]3OC(=O)[C@@H](C)[C@@H]3[C@@H](O)C[C@@]2(C)C=CC1=O`, the EC50 in experiment [2] (Plasmodium falciparum) and in experiment [3] (Plasmodium falciparum) was 0.02 µM throughout.

Take `NCCCN(Cc1ccccc1)Cc1ccc(Cc2ccc(Br)o2)cc1.O=C(O)C(F)(F)F`: the figures for the concentration for a half-maximal effect (EC50) in experiment [1], in experiment [2] (Plasmodium falciparum) and in experiment [3] were 20.6 µM, 5.72 µM and “Not Active”, respectively.

Take `CCCCOc1ccc(CN(CCCN)Cc2ccc(OCCCC)cc2)cc1`: the EC50 in experiment [1] was 1.22 µM and 1.27 µM; in experiment [2], 6.44 µM; in experiment [2] (Plasmodium falciparum), 6.64 µM; in experiment [3], 4.1 µM; in experiment [3] (Plasmodium falciparum) it was 4.37 µM.

Consider `CCCCN(CCCC)CCCN.O=C(O)C(F)(F)F`, for which the EC50 was 4.66 µM in experiment [1], “Not Active” in experiment [2] and 6.33 µM in experiment [3] (Plasmodium falciparum).

The compound `N=C(N)c1ccc(OCCCCCOc2ccc(C(=N)N)cc2)cc1` [PENTAMIDINE] yielded an EC50 in experiment [1] of 1.35 µM.

With `NCCCN(Cc1ccc(OCc2ccccc2)c(OCc2ccccc2)c1)Cc1ccc(OCc2ccccc2)c(OCc2ccccc2)c1`, the EC50 in experiment [1] was 1.64 µM; in experiment [2] (Plasmodium falciparum), 3.03 µM; in experiment [3] (Plasmodium falciparum) it was 2.9 µM.

`NCCCN(Cc1ccccc1)Cc1ccc(C(=O)O)cc1.O=C(O)C(F)(F)F`: the EC50 was 8.97 µM in experiment [1], “Not Active” in experiment [2] and “Not Active” in experiment [3].

With `NCCCN(Cc1ccc(OCc2c(F)c(F)c(F)c(F)c2F)cc1)Cc1ccc(OCc2c(F)c(F)c(F)c(F)c2F)cc1`, the EC50 in experiment [1] is 3.81 µM and 1.95 µM; in experiment [2], 3.29 µM; in experiment [2] (Plasmodium falciparum), 3.16 µM; in experiment [3], 2.68 µM; in experiment [3] (Plasmodium falciparum), 2.24 µM.

With `NCCCCN(Cc1ccc(Br)o1)Cc1ccc(Br)o1.O=C(O)C(F)(F)F`, the EC50 in experiment [1] is 19.2 µM; in experiment [2], “Not Active”; in experiment [3], “Not Active”.

`C[C@@H]1[C@H](O)[C@@H](C)/C=C/C=C/CC/C=C/C=C/C=C/C=C/[C@H](O[C@@H]2O[C@H](C)[C@@H](O)[C@H](N)[C@@H]2O)C[C@@H]2O[C@](O)(C[C@@H](O)C[C@@H](O)[C@H](O)CC[C@@H](O)C[C@@H](O)CC(=O)O[C@H]1C)C[C@H](O)[C@H]2C(=O)O` registered an EC50 in experiment [1] of 0.01 µM.

For `NCCCN(Cc1ccc(Cl)cc1)Cc1ccc(Cl)cc1.O=C(O)C(F)(F)F`, the EC50 in experiment [1] was 8.69 µM; in experiment [2] (Plasmodium falciparum), 10.1 µM; in experiment [3], “Not Active”.

Consider `NCCCCN(Cc1ccc(OCCc2ccccc2)cc1)Cc1ccc(OCCc2ccccc2)cc1.O=C(O)C(F)(F)F`, for which the concentration for a half-maximal effect (EC50) in experiment [1] was 13 µM and 27 µM; in experiment [2], “Not Active”; in experiment [3], 8.68 µM; in experiment [3] (Plasmodium falciparum) it was 7.43 µM.

As to `NCCCCN(Cc1ccc(Cl)cc1)Cc1ccc(Cl)cc1.O=C(O)C(F)(F)F`, the EC50 is 3.77 µM in experiment [1], “Not Active” in experiment [2] and “Not Active” in experiment [3].

Turning to `NCCCN(Cc1ccc(OCCc2ccccc2)cc1)Cc1ccc(OCCc2ccccc2)cc1.O=C(O)C(F)(F)F`, the EC50 in experiment [1] was 14.2 µM and 11.1 µM; in experiment [2] it was “Not Active”; in experiment [3], 6.94 µM; in experiment [3] (Plasmodium falciparum), 4.25 µM.

For the compound `NCCCCN(Cc1ccccc1)Cc1ccc(C(=O)O)cc1.O=C(O)C(F)(F)F`, the EC50 in experiment [1] was 10.3 µM; in experiment [2] it was “Not Active”; in experiment [3], “Not Active”.

Consider `CCN(CC)CCCC(C)Nc1ccnc2cc(Cl)ccc12` (stereo not given) [CHLOROQUINE], for which the figures for the EC50 in experiment [2] (Plasmodium falciparum) and in experiment [3] (Plasmodium falciparum) were 0.31 µM and 0.014 µM, respectively.

Consider `COc1ccc(CN(CCCCN)Cc2ccccc2)cc1OC.O=C(O)C(F)(F)F`, for which the EC50 in experiment [1] is 8.36 µM; in experiment [2] (Plasmodium falciparum) it was 3.62 µM; in experiment [3], “Not Active”.

On to `NCCCCN(Cc1ccc(OCc2ccccc2)cc1)Cc1ccc(OCc2ccccc2)cc1`, for which the EC50 in experiment [1] was found to be 1.85 µM; in experiment [2] (Plasmodium falciparum), 4.88 µM; in experiment [3] (Plasmodium falciparum), 3.2 µM.

For the compound `CC(C)c1ccc(CN(CCCN)Cc2ccccc2)cc1`, the values for the half-maximal effective concentration (EC50) in experiment [1], in experiment [2] (Plasmodium falciparum) and in experiment [3] (Plasmodium falciparum) were 1.58 µM, 2.19 µM and 7.31 µM, respectively.

With `NCCCCN(Cc1ccc(OCc2ccc(Cl)c(Cl)c2)cc1)Cc1ccc(OCc2ccc(Cl)c(Cl)c2)cc1`, the EC50 is 3.82 µM and 3.66 µM in experiment [1]; 2.59 µM and 0.69 µM in experiment [2]; 1.16 µM in experiment [3] (Plasmodium falciparum).

As for `NCCCN(Cc1ccc(OCc2ccc(Br)cc2)cc1)Cc1ccc(OCc2ccc(Br)cc2)cc1`, the EC50 in experiment [1] was 0.91 µM and 0.88 µM; in experiment [2] it was 2.25 µM; in experiment [2] (Plasmodium falciparum) it was 2.44 µM; in experiment [3] it was 1.23 µM; in experiment [3] (Plasmodium falciparum) it was 1.14 µM.

As to `NCCCN(Cc1ccccc1)Cc1ccc(OCc2ccccc2)cc1`, the EC50 was found to be 1.37 µM in experiment [1], 3.79 µM in experiment [2] (Plasmodium falciparum) and 4.43 µM in experiment [3] (Plasmodium falciparum).

On to `CCCCOc1ccc(CN(CCCCN)Cc2ccc(OCCCC)cc2)cc1`, for which the EC50 in experiment [1] was 2.47 µM and 3.92 µM; in experiment [2], 2.9 µM; in experiment [2] (Plasmodium falciparum) it was 4.18 µM; in experiment [3] (Plasmodium falciparum), 4.09 µM.

With `CC(C)c1ccc(CN(CCCCN)Cc2ccc(C(C)C)cc2)cc1.O=C(O)C(F)(F)F`, the EC50 is 3 µM in experiment [1], 7.29 µM in experiment [2] (Plasmodium falciparum) and “Not Active” in experiment [3].

On to `COc1ccc(CN(CCCN)Cc2ccccc2)cc1OC.O=C(O)C(F)(F)F`, for which the concentration giving a half-maximal response (EC50) in experiment [1] was 3.97 µM; in experiment [2] (Plasmodium falciparum), 5.6 µM; in experiment [3], “Not Active”.

For the compound `COc1ccc(CN(CCCN)Cc2ccc(OC)cc2OC)c(OC)c1.O=C(O)C(F)(F)F`, the EC50 in experiment [1] was 20.5 µM; in experiment [2] (Plasmodium falciparum), 9.42 µM; in experiment [3], “Not Active”.

With `CC(C)c1ccc(CN(CCCN)Cc2ccc(C(C)C)cc2)cc1.O=C(O)C(F)(F)F`, the results for the EC50 in experiment [1], in experiment [2] (Plasmodium falciparum) and in experiment [3] were 2.65 µM, 9.5 µM and “Not Active”, respectively.

For the compound `NCCCCN(Cc1ccccc1)Cc1ccccc1.O=C(O)C(F)(F)F`, the results for the EC50 in experiment [1], in experiment [2] and in experiment [3] were 26.2 µM, “Not Active” and “Not Active”, respectively.

As for `COc1cc(CN(CCCN)Cc2ccc(OCc3ccccc3)c(OC)c2)ccc1OCc1ccccc1`, the EC50 in experiment [1] worked out at 0.67 µM; in experiment [2] (Plasmodium falciparum) it was 2.81 µM; in experiment [3] (Plasmodium falciparum), 2.97 µM.

Consider `NCCCN(Cc1ccc(OCc2ccc(Cl)c(Cl)c2)cc1)Cc1ccc(OCc2ccc(Cl)c(Cl)c2)cc1`, for which the EC50 in experiment [1] was 0.97 µM and 2.57 µM; in experiment [2] it was 4.11 µM; in experiment [2] (Plasmodium falciparum) it was 3.2 µM; in experiment [3], 1.54 µM; in experiment [3] (Plasmodium falciparum), 1.34 µM.

On to `CC(C)(C)c1ccc(COc2ccc(CN(CCCN)Cc3ccc(OCc4ccc(C(C)(C)C)cc4)cc3)cc2)cc1`, for which the EC50 in experiment [1] is 2.13 µM and 1.37 µM; in experiment [2], 4.04 µM; in experiment [2] (Plasmodium falciparum), 3.85 µM; in experiment [3] it was 2.02 µM; in experiment [3] (Plasmodium falciparum), 2.52 µM.

For the compound `NCCCN(Cc1ccc(OCc2ccccc2)cc1)Cc1ccc(OCc2ccccc2)cc1`, the EC50 in experiment [1] came to 1.12 µM; in experiment [2] (Plasmodium falciparum) it was 6.03 µM; in experiment [3] (Plasmodium falciparum), 4.99 µM.

Consider `COc1ccc(CN(CCCN)Cc2ccc(OC)cc2)cc1.O=C(O)C(F)(F)F`, for which the EC50 is 10 µM in experiment [1], 9.34 µM in experiment [2] (Plasmodium falciparum) and “Not Active” in experiment [3].

On to `NCCCCN(Cc1ccc(OCCCc2ccccc2)cc1)Cc1ccc(OCCCc2ccccc2)cc1`, for which the EC50 in experiment [1] is 2.46 µM and 2.96 µM; in experiment [2], 2.53 µM; in experiment [2] (Plasmodium falciparum), 3.07 µM; in experiment [3], 1.04 µM; in experiment [3] (Plasmodium falciparum), 1.12 µM.

Regarding `COc1cc(CN(CCCCN)Cc2ccc(OCc3ccccc3)c(OC)c2)ccc1OCc1ccccc1`, the EC50 was determined as 1.83 µM in experiment [1], 1.68 µM in experiment [2] (Plasmodium falciparum) and 1.07 µM in experiment [3] (Plasmodium falciparum).

In the case of `NCCCCN(Cc1ccccc1)Cc1ccc(Br)o1.O=C(O)C(F)(F)F`, the EC50 in experiment [1] is 21.1 µM; in experiment [2] it was “Not Active”; in experiment [3], “Not Active”.
